{"source": "patent US20090042823A1", "about": "(priority 2007, published 2009)", "system": "PR8 virus", "design": "species or system influenza A virus", "details": "in vivo", "data": [{"smiles": "CCOC(=O)C1=C[C@@H](OC(CC)CC)[C@H](NC(C)=O)[C@@H](N)C1", "note": "[oseltamivir drug, oseltamivir]", "values": [{"measurement": "influenza viral titer relative to GFP control siRNA", "result": "reduced influenza viral titers"}]}]}
